Data taken from patent US20190142722A1, “METHODS AND COMPOSITIONS FOR PROMOTING OR INDUCING HAIR GROWTH” (THE TRUSTEES OF COLUMBIA UNIVERSITY IN THE CITY OF NEW YORK, priority 2017, published 2019).

Assays:
[1] = test system: Hair follicle stem cells (HFSCs); assay: Western blot of cultured HFSCs stimulated with OSM, with or without JAK inhibitor pre-treatment; assay type: cell-based, mouse
Method: (§1) HFSCs (ITGA6+ Sca-1−) cells were collected from flow cytometry and plated onto 6-well plates, and maintained with Cnt-07S keratinocyte media. In vitro stimulation experiments were carried out when keratinocytes were 80-90% confluent. Confluent HFSCs were pre-treated with JAK inhibitors (tofacitinib, ruxolitinib or PF-06651600, all at 10 μM) for 20 min, and murine OSM was added for a final concentration of 10 ng/ml or 20 ng/ml for 15 min. For clonogenic assays, HFSCs were plated at a density of 10,000 cells per well and maintained for 2 weeks. For analysis of clonogenicity, plates were washed with PBS, and keratinocytes were fixed in situ with 4% paraformaldehyde (PFA) for 1 hour, followed by staining with 1% (wt/vol) Rhodamine B (Sigma-Aldrich) for 1 h. Clones were quantified using a backlight.
Cells were lyzed in RIPA buffer in the presence of protease and phosphatase inhibitors on ice, and protein lysates were resuspended in Laemmli sample buffer. Whole-cell lysates were fractionated on TGX Stain-free protein gels and transferred to a PVDF membrane, blocked with 5% non-fat milk in TBST, and incubated with antibodies listed in the Key Resources Table (all 1:1000, diluted in TBST/3% BSA) overnight. Membranes were washed the following day and incubated with HRP-conjugated secondary antibodies (1:5000), washed, and developed with Luminata Forte Western HRP Substrate and visualized on the BioRAD ChemiDOC MP Imaging system. GAPDH or (3-actin were used as loading controls, depending on the mass of the proteins of interest.
Hair follicle stem cells (HFSCs) (ITGA6+ Sca-1− population isolated from telogen skin), were cultured and stimulated with OSM at 10 ng/ml and 20 ng/ml. […] (FIG. 1C).

(ITGA6+ Sca-1−) HFSCs = assay: Colony-forming assay with isolated HFSCs; assay type: cell-based, mouse; conditions: for colony formation of HFSCs: OSM 10 ng/ml or Tofacitinib 100 nM alone
Method: as §1
Colony-forming assays with isolated (ITGA6+ Sca-1−) HFSCs were performed in the presence of OSM (10 ng/ml), Tofacitinib (100 nM) or both. […] (FIG. 1E).

[2] = test system: Neonatal keratinocytes and dermal cells; assay: Hair reconstitution (patch) assay; assay type: in vivo; conditions: tofacitinib 400 nM or OSM 25 ng/ml added to cell slurry injected intradermally into nude mouse
Method: (§2) For in vivo macrophage inhibition, the small molecule Pexidartinib/PLX3397 was administered topically (2 mM in DMSO) or subcutaneously (1 mM in corn oil) for 5 consecutive days from P60. For OSM knock-down, peritoneal macrophages were harvested from adult C57BL/6 mice and cultured in DMEM/F12/15% FBS/0.3 mMCa2+ the presence of […] M-CSF to polarize them to an “M2-like” phenotype, similar to trichophages. Lentiviral precipitate containing scrambled or OSM shRNA added to the media in the presence of 8 μg/ml protamine sulphate, and the cells were centrifuged at 3000 rpm for 1 h at 32° C. to enhance transduction. Successful transductions were enriched with puromycin (1 μg/ml) selection, counted and used for the patch assay.
Neonatal (P0 or P1) mice were sacrificed and skins were harvested for the patch assay. Neonatal skins were enzymatically separated with 0.25% trypsin, and the dermis was further digested with 0.3% collagenase/DNase. Neonatal keratinocytes and dermal cells were counted recombined in a 1:1 ratio ([…] each) and resuspended in 100 μl of media (1:1 mix of DMEM/10% FBS and CnT-0.7S) and injected intradermally into the dorsal skin of a nude mouse. For pharmacological/cytokine treatment, tofacitinib (400 nM) and/or OSM (25 ng/ml) was added. […]

alopecia areata = conditions: patients, literature (Mackay-Wiggan 2016; Kennedy Crispin 2016); cited from earlier work
macrophages = assay: Macrophage inhibition during telogen to initiate anagen; assay type: in vivo, mouse; conditions: mid-telogen, C57BL/6 mice
Method: (§3) Neutralizing antibodies to OSMR (7.5 μg) were injected intradermally into the dorsal telogen skin daily for 14 days from P60 (mid-telogen). Neutralizing antibodies to CSFL1R (AFS98) and F4/80 (CI:A3-1) were diluted in sterile PBS, and 500 μg was injected intradermally into the dorsal telogen skin for 14 consecutive days. Neutralizing antibodies to CD25 (PC61.5) were injected intraperitoneally every other day (250 μg/dose×3) from P53, prior to anagen induction at P60.
as §2
Three independent methods of macrophage inhibition during telogen were used to initiate anagen in C57BL/6 mice.

[3] = test system: T regulatory cells / macrophages; assay: Anagen initiation after T regulatory cell depletion or macrophage targeting; assay type: in vivo, mouse
Method: as §3

telogen skin [4] = assay: Anagen induction by topical JAK inhibitor in mouse telogen skin; assay type: in vivo; conditions: topical to dorsal skin for 5 days at P60 (mid-telogen), C57BL/6 mice
Text: (§4) Mice were carefully shaved with clippers during telogen to reveal the pink skin typical of the telogen phase 1 week prior to the experiment. Mice that were inadvertently wounded were not used. Anagen was induced by topical application of 2% Ruxolitinib in DMSO to the right side of the dorsal skin daily for 5 consecutive days. The hair cycle was observed and documented with standardized photographs taken prior to the first treatment, and then twice weekly thereafter. Murine IL-6, LIF or OSM (100 ng/ml, 50 ng/ml, 125 ng/ml respectively) were dissolved in sterile PBS and 100 μl was injected into the center of the field of application daily for 10 consecutive days, beginning with the first application of Ruxolitinib.
(§5) OSM and other gp130 cytokines (IL-6 and Leukemia Inhibitory Factor, LIF) were tested for their ability to inhibit anagen resulting from topical JAK inhibitors, which resembles spontaneous anagen. C57BL/6 mice were treated on the right dorsal skin topically with Ruxolitinib 2% in DMSO at P60 (mid-telogen) for 5 days, recapitulating previous experiments in Harel, S., et al., Pharmacologic inhibition of JAK-STAT signaling promotes hair growth. Sci Adv, 2015. 1(9): p. e1500973. […] From P60, mice were also injected with control PBS or a gp130 cytokine (IL-6, LIF or OSM) into the middle of the field of topical application for 10 days. […] (FIG. 1A).

telogen skin [5] = assay: Inhibition of topical JAK inhibitor-induced anagen by intradermal gp130 cytokines; assay type: in vivo, mouse; conditions: cytokine injected intradermally into middle of field of topical application for 10 days from P60, C57BL/6 mice
Text: as §4, §5

hair follicles = conditions: cited from earlier work
[6] = pre-treatment 10 μM for 20 min before OSM
[7] = OSM at 10 ng/ml and 20 ng/ml, cultured HFSCs

C[C@@H]1CCN(C(=O)CC#N)C[C@@H]1N(C)c1ncnc2[nH]ccc12 [Tofacitinib]
effect on JAK phosphorylation in OSM-stimulated HFSCs (Western blot) [1, 6]: inhibited phosphorylation of a variety of JAKs | effect on pSTAT3 / pSTAT5 activation in OSM-stimulated HFSCs (Western blot) [1, 6]: inhibited both pSTAT3 and pSTAT5 activation | inhibition of OSM-activated pathways by pre-treatment (Western blot) ([1]; pre-treatment 10 μM for 20 min before OSM, cultured HFSCs): inhibited the JAK-STAT and, to a lesser extent, the MAPK-MEK-ERK pathways | colony formation of HFSCs ((ITGA6+ Sca-1−) HFSCs): increased the colony-forming ability of HFSCs, as well as increasing the colony size | rescue of the inhibitory effects of OSM on colony formation ((ITGA6+ Sca-1−) HFSCs; Tofacitinib 100 nM together with OSM 10 ng/ml): sufficient to rescue the inhibitory effects of OSM | hair reconstitution in patch assay [2]: enhanced the hair follicles generated in this assay | efficacy in alopecia areata (alopecia areata): efficacious in the treatment of alopecia areata

FC(F)(F)c1ccc(CNc2ccc(Cc3c[nH]c4ncc(Cl)cc34)cn2)cn1 [Pexidartinib, 5-[(5-chloro-1H-pyrrolo[2,3-b]pyridin-3-yl)methyl]-N-[[6-(trifluoromethyl)pyridin-3-yl]methyl]pyridin-2-amine]
anagen initiation (macrophages; subcutaneous (1 mM in corn oil) for 5 days): successful at initiating anagen | anagen initiation (macrophages; topical (2 mM in DMSO) for 5 days): successful at initiating anagen | anagen initiation compared with wild-type mice treated with a JAK-inhibitor [3]: initiated anagen in the same manner as wild-type mice treated with a JAK-inhibitor

C=CC(=O)N1C[C@H](Nc2ncnc3[nH]ccc23)CC[C@@H]1C [PF-06651600]
anagen induction in telogen skin (telogen skin [4]): sufficient to initiate anagen | effect on JAK phosphorylation in OSM-stimulated HFSCs (Western blot) [1, 6]: did not have an effect on JAK1/JAK2/Tyk2 or STAT3 phosphorylation | effect on pSTAT3 / pSTAT5 activation in OSM-stimulated HFSCs (Western blot) [1, 6]: without significant inhibition of STAT3 phosphorylation | effect on pSTAT3 / pSTAT5 activation in OSM-stimulated HFSCs (Western blot) ([1]; pre-treatment 10 μM for 20 min before OSM, listed as PF-06651660): still inhibited pSTAT5 activation

B1: OSM: secreted cytokine of the LIF/OSM family; murine OSM used in tests (protein, UniProt P53347 25-206, looked up)
Oncostatin-M: NRGCSNSSSQLLSQLQNQANLTGNTESLLEPYIRLQNLNTPDLRAACTQHSVAFPSEDTLRQLSKPHFLSTVYTTLDRVLYQLDALRQKFLKTPAFPKLDSARHNILGIRNNVFCMARLLNHSLEIPEPTQTDSGASRSTTTPDVFNTKIGSCGFLWGYHRFMGSVGRVFREWDDGSTRSRR
inhibition of anagen resulting from topical Ruxolitinib (telogen skin [5]): inhibited anagen in the area it was administered | activation of JAK-STAT and MAPK-MEK-ERK pathways (Western blot) [1, 7]: activated JAK-STAT1/3/5 pathways and the MAPK-MEK-ERK pathways in HFSCs in a dose-dependent fashion | effect on PI3K/Akt/mTOR pathway (Western blot) [1, 7]: minimal effect on the PI3K/Akt/mTOR pathway | activation of JAKs, pSTAT3 and pSTAT5 (Western blot) ([1]; OSM-stimulated cultured HFSCs): dose-dependent activation of all four JAKs (JAK1, JAK2, JAK3, Tyk2), as well as pSTAT3 and pSTAT5 | colony formation of HFSCs ((ITGA6+ Sca-1−) HFSCs): prevented colonies from forming in vitro | hair reconstitution in patch assay [2]: sufficient to nearly completely inhibit hair reconstitution | effect on anagen (hair follicles; mouse, literature): potent inhibitor of anagen

B2: IL-6: gp130 cytokine, murine IL-6 (protein, UniProt P08505 25-211, looked up)
Interleukin-6: FPTSQVRRGDFTEDTTPNRPVYTTSQVGGLITHVLWEIVEMRKELCNGNSDCMNNDDALAENNLKLPEIQRNDGCYQTGYNQEICLLKISSGLLEYHSYLEYMKNNLKDNKKDKARVLQRDTETLIHIFNQEVKDLHKIVLPTPISNALLTDKLESQKEWLRTKTIQFILKSLEEFLKVTLRSTRQT
inhibition of anagen resulting from topical Ruxolitinib (telogen skin [5]): OSM was the only member of this class of cytokines that inhibited anagen | induction of catagen (hair follicles; anagen HFs, literature (Kwack 2012)): IL-6 induced catagen in anagen HFs
